Assay results as given in the supplement of paper PMC4862054.

Assays:
[1] = system: MDA-MB-468; conditions: 72 h
In short: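 Two sequential readouts followed a 72 h incubation of breast cancer cell lines with compound at 5 concentrations in 10-fold steps over a compound-specific 10,000-fold range: CellTox Green fluorescence (485/520 nm) for cell death, then CellTiter-Glo luminescence, after 10 min at room temperature, for viability. Each plate was normalised to 0.1 % DMSO and a positive kill control. Dose-response curves were fitted for EC50, censored at the top concentration.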

[2] = system: CAL-120; assay: normalised viability (% of control), CellTiter-Blue; higher = more viable cells (about 100 = DMSO control); conditions: incubation time: 72 h
In short: (§1)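 Breast cancer cell lines in 20 µl suspension were seeded onto 384-well plates pre-loaded with compound dissolved in 5 µl medium, then incubated 72 h. CellTiter-Blue reagent (2.5 µl) was added for 2 h at 37 °C and fluorescence read at 560/590 nm. Each plate was normalised to vehicle (100) and a positive kill control (0), with Z'-factor quality control. The value is normalised viability at one listed concentration of the series.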

[3] = system: CAL-148; assay: as above; conditions: incubation time: 72 h
In short: as §1

[4] = system: CAL-85-1; assay: as above; conditions: incubation time: 72 h
In short: as §1

[5] = system: DU-4475; assay: as above; conditions: incubation time: 72 h
In short: as §1

[6] = system: HCC1143; assay: as above; conditions: incubation time: 72 h
In short: as §1

[7] = system: HCC1599; assay: as above; conditions: incubation time: 72 h
In short: as §1

[8] = system: HCC1937; assay: as above; conditions: incubation time: 72 h
In short: as §1

[9] = system: HDQ-P1; assay: as above; conditions: incubation time: 72 h
In short: as §1

[10] = system: Hs578T; assay: as above; conditions: incubation time: 72 h
In short: as §1

[11] = system: MDA-MB-231; assay: as above; conditions: incubation time: 72 h
In short: as §1

[12] = system: MDA-MB-436; assay: as above; conditions: incubation time: 72 h
In short: as §1

[13] = system: MDA-MB-453; assay: as above; conditions: incubation time: 72 h
In short: as §1

[14] = system: MDA-MB-468; assay: as above; conditions: incubation time: 72 h
In short: as §1

[15] = system: SK-BR-3; assay: as above; conditions: incubation time: 72 h
In short: as §1

[16] = system: CAL-85-1; assay: drug sensitivity score (DSS), CellTox Green (DSS (AUC-based score)); higher = stronger drug effect (viability inhibition or cytotoxicity); extreme values may be limits of the assay; conditions: incubation time: 72 h
In short: (§2)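 In 384-well plates, compound was laid out at 5 concentrations in 10-fold steps over a 10,000-fold range specific to each compound, and breast cancer cell lines were seeded on top in 20 µl suspension for a 72 h incubation. CellTox Green fluorescence and then CellTiter-Glo luminescence were read, and each plate was normalised to 0.1 % DMSO and a positive kill control. The drug sensitivity score was calculated from the area under the fitted dose-response curve.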

[17] = system: HCC1599; assay: as above; conditions: incubation time: 72 h
In short: as §2

[18] = system: HCC1937; assay: as above; conditions: incubation time: 72 h
In short: as §2

[19] = system: MCF-10A; assay: as above; conditions: incubation time: 72 h
In short: as §2

[20] = system: MDA-MB-231; assay: as above; conditions: incubation time: 72 h
In short: as §2

[21] = system: MDA-MB-436; assay: as above; conditions: incubation time: 72 h
In short: as §2

[22] = system: MDA-MB-468; assay: as above; conditions: incubation time: 72 h
In short: as §2

[23] = system: MFM-223; assay: as above; conditions: incubation time: 72 h
In short: as §2

COc1cc2/c(=N/c3ccc(Br)cc3F)nc[nH]c2cc1OCC1CCN(C)CC1 [Vandetanib]
Conditions | EC50, CellTiter-Glo [nM] | drug sensitivity score
[1] | 7.82 | –
[16] | – | 0
[17] | – | 0
[18] | – | 0
[19] | – | 0
[20] | – | 3.15
[21] | – | 0
[22] | – | 0
[23] | – | 0

normalised viability [%]
Conditions | 3 nM | 10 nM | 30 nM | 100 nM | 1000 nM | 10000 nM
[2] | – | 117 | – | – | 98.2 | 17.6
[3] | 96.2 | – | 93.2 | 92.8 | – | –
[4] | 105 | – | 109 | 101 | – | –
[5] | 108 | – | 102 | 106 | – | –
[6] | – | 122 | – | – | 99.7 | 68.5
[7] | – | 88.7 | – | – | 107 | 58.5
[8] | – | 29.7 | – | – | 105 | 59.7
[9] | 76.8 | – | 72.1 | 59.3 | – | –
[10] | – | 108 | – | – | 92.8 | 50
[11] | – | 86 | – | – | 82.5 | 8.26
[12] | – | 76.4 | – | – | 35.7 | 30.1
[13] | 89.6 | – | 94.4 | 91.4 | – | –
[14] | – | 89.8 | – | – | 74.3 | 28
[15] | – | 100 | – | – | 96.4 | 14.3

O=C(Nc1cccnc1)N1CCC(Cc2cccc(Oc3ccc(C(F)(F)F)cn3)c2)CC1 [PF-3845]
Conditions | EC50, CellTiter-Glo [nM] | drug sensitivity score
[1] | 2500 | –
[16] | – | 0
[17] | – | 0
[18] | – | 0
[19] | – | 0
[20] | – | 0
[21] | – | 0
[22] | – | 0
[23] | – | 0

normalised viability [%]
Conditions | 3 nM | 10 nM | 30 nM | 100 nM | 1000 nM | 10000 nM
[2] | – | 99.1 | – | – | 105 | 120
[3] | 91 | – | 85.3 | 97.9 | – | –
[4] | 89.6 | – | 89.5 | 87.1 | – | –
[5] | 90.2 | – | 90.7 | 87.6 | – | –
[6] | – | 84.3 | – | – | 88.5 | 89.5
[7] | – | 95.1 | – | – | 114 | 76.6
[8] | – | 122 | – | – | 108 | 97.2
[9] | 129 | – | 115 | 113 | – | –
[10] | – | 116 | – | – | 94.3 | 79.1
[11] | – | 106 | – | – | 115 | 127
[12] | – | 98.1 | – | – | 116 | 101
[13] | 112 | – | 101 | 101 | – | –
[14] | – | 106 | – | – | 117 | 62.8
[15] | – | 111 | – | – | 106 | 116

N#Cc1ccc(COC[C@H]2O[C@@H](n3c(NCc4ccc(Cl)c(Cl)c4)nc4c(N)ncnc43)[C@H](O)[C@@H]2O)cc1
Conditions | EC50, CellTiter-Glo [nM] | drug sensitivity score
[1] | 2270 | –
[16] | – | 2.89
[17] | – | 0
[18] | – | 0
[19] | – | 0
[20] | – | 0
[21] | – | 0
[22] | – | 0
[23] | – | 3.38

normalised viability [%]
Conditions | 3 nM | 10 nM | 30 nM | 100 nM | 1000 nM | 10000 nM
[2] | – | 103 | – | – | 110 | 62.4
[3] | 101 | – | 105 | 99.3 | – | –
[4] | 108 | – | 107 | 110 | – | –
[5] | 97.8 | – | 88.7 | 113 | – | –
[6] | – | 90.1 | – | – | 87.4 | 60.8
[7] | – | 97.3 | – | – | 65.6 | 22
[8] | – | 135 | – | – | 78.5 | 71.8
[9] | 115 | – | 104 | 105 | – | –
[10] | – | 104 | – | – | 99.3 | 73.8
[11] | – | 128 | – | – | 77.3 | 57.2
[12] | – | 95.2 | – | – | 84.8 | 50.9
[13] | 124 | – | 95.7 | 91.4 | – | –
[14] | – | 108 | – | – | 89.7 | 68.7
[15] | – | 115 | – | – | 102 | 37.3

O=C(/C=C/c1cccc(S(=O)(=O)Nc2ccccc2)c1)NO [Belinostat]
Conditions | EC50, CellTiter-Glo [nM] | drug sensitivity score
[1] | 410 | –
[16] | – | 11.5
[17] | – | 0
[18] | – | 0
[19] | – | 10.5
[20] | – | 17.8
[21] | – | 0
[22] | – | 2.85
[23] | – | 4.75

normalised viability [%]
Conditions | 3 nM | 10 nM | 30 nM | 100 nM | 1000 nM | 10000 nM
[2] | – | 87.7 | – | – | 20.5 | 3.33
[3] | 90.7 | – | 97.2 | 81.7 | – | –
[4] | 95.7 | – | 79.5 | 86.8 | – | –
[5] | 99.9 | – | 106 | 98.7 | – | –
[6] | – | 99.4 | – | – | 54 | 12.9
[7] | – | 90 | – | – | 33.2 | 15.4
[8] | – | 46.4 | – | – | 41.4 | 15.1
[9] | 90.4 | – | 90.8 | 72.5 | – | –
[10] | – | 114 | – | – | 74.7 | 7.02
[11] | – | 96.1 | – | – | 40.7 | 7.79
[12] | – | 116 | – | – | 38.8 | 17.4
[13] | 90.7 | – | 82.5 | 64.6 | – | –
[14] | – | 112 | – | – | 66.9 | 16.3
[15] | – | 86.9 | – | – | 21.6 | 3.92
